Data on one compound can be found in patent US20160051527A1, “METHODS AND KITS FOR TREATING AND CLASSIFYING INDIVIDUALS AT RISK OF OR SUFFERING FROM A NEUROLOGICAL DYSFUNCTION OR DISORDER” (priority 2013, published 2016).

The test system of the experiment is patients with a single variant in the ChAT gene (340L>F or 510R>Q). In words: Clinical response to medications prior to sequencing in patients carrying a ChAT gene variant. As to conditions: 2/2 patients, dampens opposing sympathetic activity.

Consider `CC(C)NCC(O)COc1cccc2ccccc12` (stereo not shown) [propranolol], for which the clinical response result is “clinical improvement”.
